From patent US20070078092A1, “Cell permeable conjugates of peptides for inhibition of protein kinases” (priority 2003, published 2007)
Where a name gives a salt, the structure may show the parent alone. Read-outs that look alike come from different tables or passages of the source. Blank lines part the entries; values can stand above or below the compound they belong to.

How the values were obtained:
[1] = system: prostate cancer cell lines; assay: Growth inhibition assay, combination with chemotherapeutic agents
Description: The chemotherapeutic agents used are: Mitoxantrone hydrochloride (Novantrone, Wyeth Lederle S.p.A. Catania, Italy) supplied as a sterile aqueous solution of 3.8 mM. Doxorubicin, Etoposide and Vinblastine sulfate salt (Sigma) were dissolved in 100% DMSO to prepare stock solutions at concentration of 10 mM. Docetaxel (Taxpter, Aventis) stock solution of 11.6 mM in polysorbate 80. These agents were diluted in medium just before use for in vitro studies.
Cells were incubated for five days in the present of the drugs followed by fixation and staining of cells with methylene blue.

PKB = target: T1, PKB (Homo sapiens, UniProt P31749); assay: PKB in vitro kinase activity assay; format: biochemical
T1 construct: His; HA; made in house
T1 sequence (P31749 whole entry, species assumed): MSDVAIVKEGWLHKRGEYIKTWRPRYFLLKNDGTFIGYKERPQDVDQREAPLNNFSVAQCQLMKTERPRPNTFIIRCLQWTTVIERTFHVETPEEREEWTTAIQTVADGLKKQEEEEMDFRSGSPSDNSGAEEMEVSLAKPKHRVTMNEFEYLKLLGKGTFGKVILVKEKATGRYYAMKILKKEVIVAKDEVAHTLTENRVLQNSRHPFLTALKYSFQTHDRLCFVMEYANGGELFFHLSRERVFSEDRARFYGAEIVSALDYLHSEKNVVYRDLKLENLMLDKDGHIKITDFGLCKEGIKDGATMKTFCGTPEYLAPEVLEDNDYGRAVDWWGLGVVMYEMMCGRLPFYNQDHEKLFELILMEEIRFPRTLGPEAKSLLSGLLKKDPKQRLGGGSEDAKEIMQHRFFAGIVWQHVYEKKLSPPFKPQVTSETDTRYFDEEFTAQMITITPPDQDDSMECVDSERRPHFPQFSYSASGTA

PC3 cells = assay: Growth inhibition assay in PC3 cells; format: cell-based, human; conditions: 50 μM
From the text: (§1) Several cancer cell lines were used to determine the activity of PKB inhibitor compounds in intact cells. The human prostate carcinoma cell lines, PC-3 and LNCaP. The human acute T cells leukemia cell line, Jurkat. Human breast carcinoma cell lines: MCF-7 and MDA468 and renal adenocarcinoma cell 786-O. LNCaP,MDA468, 786-O and Jurkat cell lines express high basal level of activated PKB. PC-3 expresses moderate level of activated PKB. MCF-7 expresses low but inducible level of activated PKB. Control cells are PBLs, normal peripheral blood lymphocytes which obtained from normal donors (blood bank) and MCF10F which is a non tumorogenic breast cell line. […]
(§2) Cells were fixed by 0.5% glutardialdehyde followed by staining with 1% methylene blue in borate buffer (Sigma) for one hour. […] Quantitation of color intensity was performed by measurement of the optical density at 600 nm by ELISA reader. […]
(§3) At the appropriate time in culture 1uci of 3H-thymidine (stock of 5 Ci/mmole, Amersham) was added to each well containing 100 μl of medium for 5 hours. […] The radioactivity was counted using microplate counter, Packard TopCount.
(§4) Fifty percent inhibitory concentration (IC50) values were calculated using nonlinear regression in one site competition model with GraphPad Prism version 3.03 Windows (GraphPad Software, San Diego, USA)

LNCaP cells = assay: Growth inhibition assay in LNCaP cells; format: cell-based, human; conditions: Table 3, assay B2
From the text: as §1, §2, §3, §4

[2] = system: prostate cancer cell lines; assay: Cell death and apoptosis in prostate cancer cell lines; format: cell-based, human
From the text: (§5) Several cancer cell lines were used to determine the activity of PKB inhibitor compounds in intact cells. The human prostate carcinoma cell lines, PC-3 and LNCaP. The human acute T cells leukemia cell line, Jurkat. Human breast carcinoma cell lines: MCF-7 and MDA468 and renal adenocarcinoma cell 786-O. LNCaP,MDA468, 786-O and Jurkat cell lines express high basal level of activated PKB. PC-3 expresses moderate level of activated PKB. MCF-7 expresses low but inducible level of activated PKB. Control cells are PBLs, normal peripheral blood lymphocytes which obtained from normal donors (blood bank) and MCF10F which is a non tumorogenic breast cell line. The control cells are used to compare the effect of the protein kinase inhibitors on the tested cancer cells and the normal cells.
Peptide conjugates, which are active in enzyme inhibition assays were tested in cells for induction of apoptosis of cancer cell lines. Apoptosis was assayed at least by two methods in each cell line. Cells were seeded at the appropriate plates for each method, treated with or without the inhibitory compounds for different time points and analyzed by one of the below methods.
Table 9 represents the cell death induced by the protein kinase inhibitors in prostate cancer cell lines vs. normal cells. […]

PC3 tumor xenograft [3] = assay: Efficacy study in mice bearing PC3 tumor, IT injection; format: in vivo; conditions: high dose (3.3 mg/kg), every other day, second week, FIG. 8
Description: C2. Efficacy Study in Mice Bearing PC3 Tumor
a. PC3 cells ([…]) were injected subcutaneously in matrigel, into hip area of Nude male mice (Harlan Co., Israel). Tumor size was determined by caliper using the formula: Length ×(width^2)×0.4. The tumors were allowed to grow to volume of about 50 mm 3 before the treatment was started. The appropriate doses of compounds were injected subcutaneously into the region surrounding the tumors (IT injection). The treatment was given 3 times a week; every other day for two weeks, and the tumor size was measured once every two days.
The high safety of PTR 6164 allows a very large therapeutic window. The conjugates were further tested in vivo in efficacy studies as described in C2 above: • a. The peptides were injected every other day, at the tumor area. After 3 injections, an indicative tendency of reduction in tumor size was observed.

PC3 tumor xenograft [4] = assay: Efficacy study in mice bearing PC3 tumor, systemic administration; format: in vivo
Description: b. Human prostatic PC-3 cancer cells are grafted subcutaneously in 5 weeks old male nude Balb/c mice of approximately 20 g. Each mouse will receive 2.5×10^6cells at Day 0. Intraperitoneal (i.p.) treatment is initiated when tumour volume reaches approximately 50 mm^3. I.p. administration is highly acceptable in preliminary experiments, and exemplifies the stability in the blood and liver, and the distribution through the blood into the tumor. The control groups is treated with the vehicle 10% DMSO -90% 2-hydroxypropyl-beta-cyclodextrin at 1×10^−2M in sterile saline. Tumour volume measurements with callipers (equation=length×width^2×0.4) and body weights are recorded 3 times weekly on Mondays, Wednesdays and Fridays. Mice are monitored twice daily for general health status. Mice are sacrificed when the tumour mass in the respective vehicle treated groups reaches approximately 20% of the body weight or if this should not be obtained, 3 weeks after the end of the treatment. At the end of the experiment, the tumours of the 3 first sacrificed mice in each group are collected and embedded in paraffin blocks for further histological examination. The remaining tumours are collected and frozen in liquid nitrogen for western blot analysis.
Although the peptide dose was 3.3 mg/kg the MTD for this compound is 40 times higher, indicating a high therapeutic index. • b. Two concentrations were tested, 66 mg/kg and 33 mg/kg, which are 0.5 and 0.25 of the MTD. The relatively high doses were selected because we had no previous knowledge on the pharmacokinetics of the compound, and we wanted to obtain maximum effect, although we expected that toxic effects might occur as a result of the high dosing.
The compounds were dissolved in a solution of 10% DMSO/90% cyclodextrin in physiological saline. Six groups of 9 mice in each were tested. Two groups received the compound i.v, every 48 hours, and two groups received it daily, by i.p. injection. Treatment started at 7 days post graft, lasted for 21 days, followed by a 14-day observation period. The experiment consisted four experimental groups as in table 7:
It is clear that the effect of the inhibitors was very significant, despite the aggressiveness of the tumors.
Three tumors from each group were studies and a clear trend of increased apoptosis is observed in the treated tumors, implying induction of apoptosis through inhibition of PKB. Tumors were collected after the 14 days observation period in which no treatment was given, indicating long-term effect. The ratio between apoptosis to mitoses in tumor sections express the viability of the tumor. In a viable tissue mitotic process are dominant and apoptosis is minor while in dying tissue this ratio is reversed. […]

[5] = system: PKB downstream substrates GSK3 and FKHR; assay: Inhibition of phosphorylation of PKB downstream substrates (Western blot); format: cell-based, human; conditions: cancer cells
Description: B3. Inhibition of Phosphorylation of PKB and Downstream Substrates:
Peptide conjugates identified as inhibitors of PKB were further tested in cells for their ability to inhibit the phosphorylation of several PBK downstream substrates. The substrate GSK3 is associated with cell metabolism and cell cycle. Forkhead (FKHR) is directly associated with apoptosis. Inhibitory activity in these assays indicates also that the positive compounds penetrate into the cells.
Cells (2×10^6) were seeded in 25 cm^2 flasks grown for 2 days at normal medium conditions. Inhibitory compounds were added for 24 hrs and analyzed for their effect on PKB phosphorylation at Ser473 residue and on the phosphorylation of specific substrates of PKB, GSK3 and FKHR. At the end of the treatment cells were lysed using lysis buffer (20 mM Tris-HCl pH 7.4, 150 mM NaCl, 0.5% Triton-x100, 25 mM NaF, 2 mM AEBSF, 1 mM sodium orthovanadate, 10 mM β-glycerophosphate, 1 μg/ml aprotonin and 5 μg/ml leupeptin). Equal amounts of cell protein were resolved by 10% SDS-PAGE and electroblotted to PVDF membranes. Western blot analysis was performed using antibodies against phospho-Akt1 (Ser473), phospho-GSK3α (Ser21) and phosphor-FKHR (Thr24), which were obtained from Cell Signaling Technology and against Akt1 (Upstate), GSK3α (Transduction Laboratories), and FKHR (Cell Signaling Technology).

[6] = system: Prostate cancer PC3 and LNCaP, T-cell leukemia Jurkat, and breast cancer MCF-7; assay: Cellular activity in the relevant cancer cell lines; format: cell-based, human
From the text: as §5
Selected peptide conjugates, which were found active in the enzyme-inhibition assays were screened for their ability to inhibit growth of tumor cell lines. Screening for inhibitory compounds was done, initially, at concentration of 50 μM. Active compounds from the first screening were further tested at different concentrations (50, 25, 12.5, 6.25, 3.125 and 1.56 μM) in order to determine their IC50. Growth inhibition was tested using two methods: A. staining of viable cells with methylene blue, B. incorporation of ^3H-thymidine. For both methods cells were grown in 96-well plates: LNCaP, 5000 cell per well for 72 hours, PC3, 5000 cells per well for 48 hours Jurkat, MDA468, and 786-O, 2500, 5000 and 1000 cells per well respectively for 24 hours, before tested compounds were added. The assays were done in triplicates for one to six days.
In addition, some of the new conjugates were also 10-20 times selective for PKB over PKA in contrast to previously described chimeric compounds. • 1. […] From the peptide transporter conjugates, 96 compounds were tested all were very active in the in-vitro kinase assay and very selective 10-50 fold, however only few were active in cells. The selected 6 active conjugates show 8-20 μM activity in cells.

[7] = 120 h, read-out: IC50 of chemotherapeutic agent alone
[8] = read-out: IC50 of chemotherapeutic agent +PTR 6320, combined with 1.5 μM of PTR 6320, five days, methylene blue
[9] = i.p. 33 mg/kg, tumors collected after the 14 days observation period

IC50 [1, 7]: 0.6 nM | IC50 [1, 8]: 0.03 nM
Compound: CC(=O)O[C@@]12CO[C@@H]1C[C@H](O)[C@@]1(C)C(=O)[C@H](O)C3=C(C)[C@@H](OC(=O)[C@H](O)[C@@H](NC(=O)OC(C)(C)C)c4ccccc4)C[C@@](O)([C@@H](OC(=O)c4ccccc4)[C@H]21)C3(C)C [Docetaxel]

IC50 [1, 7]: 13 nM | IC50 [1, 8]: 1.1 nM
Compound: COc1cccc2c1C(=O)c1c(O)c3c(c(O)c1C2=O)C[C@@](O)(C(=O)CO)C[C@@H]3O[C@H]1C[C@H](N)[C@H](O)[C@H](C)O1 [Doxorubicine, Doxorubicin]

IC50 [1, 7]: 300 nM | IC50 [1, 8]: 17 nM
Compound: COc1cc([C@@H]2c3cc4c(cc3[C@@H](O[C@@H]3O[C@@H]5CO[C@@H](C)O[C@H]5[C@H](O)[C@H]3O)[C@H]3COC(=O)[C@H]23)OCO4)cc(OC)c1O [Etoposide]

Compound: O=C1c2c(O)ccc(O)c2C(=O)c2c(NCCNCCO)ccc(NCCNCCO)c21 [Mitoxantrone, Mitoxantrone hydrochloride]
IC50 [1, 7]: 3.4 nM | IC50 [1, 8]: ~0.36 nM

IC50 [1, 7]: 2.2 nM | IC50 [1, 8]: 0.1 nM
Compound: CC[C@]1(O)C[C@@H]2CN(CCc3c([nH]c4ccccc34)[C@@](C(=O)OC)(c3cc4c(cc3OC)N(C)[C@H]3[C@@](O)(C(=O)OC)[C@H](OC(C)=O)[C@]5(CC)C=CCN6CC[C@]43[C@@H]65)C2)C1 [Vinblastine]

% Inhibition PKB activity (PKB; 1 μM): 95% | % Inhibition PKB activity (PKB; 10 μM): 97%
Compound: Ahx6-DArg-DArg-DArg-DArg-DGln-DArg-DArg-DLys-DLys-DArg-6154 [Peptide AB60025-54]

Compound: Arg-Gln-Ile-Lys-Ile-Trp-Phe-Gln-Asn-Arg-Arg-Met-Lys-Trp-Lys-Lys-6154 [Peptide AB60025-2]
% Inhibition PKB activity (PKB; 1 μM): 60% | % Inhibition PKB activity (PKB; 10 μM): 92% | % Inhibition PC3 growth (PC3 cells): 60% | IC50 (LNCaP cells): < 12500 nM

Compound: Arg-Gln-Ile-Lys-Ile-Trp-Phe-Gln-Asn-Arg-Arg-Met-Lys-Trp-Lys-Lys-6184 [Peptide AB60025-4]
% Inhibition PKB activity (PKB; 1 μM): 80% | % Inhibition PKB activity (PKB; 10 μM): 96% | % Inhibition PC3 growth (PC3 cells): 52% | IC50 (LNCaP cells): 10000 nM

Compound: Cholesteryl-O—CO-(DLys)3-Arg-Pro-Arg-Nva-Tyr-Dap-Hol-NH2 [PTR 6320]
improved in vitro selectivity in comparison to PTR 6164 (PKB; protein kinase B vs. protein kinase A, FIG. 11): about 20 times | concentration inducing apoptosis in cancer cells ([2]; cancer cells): 3 µM | efficacy / potency in cellular assays relative to PTR 6164 ([2]; compared with prototype PTR 6164): five times better efficacy

Compound: Cholesteryl-O—CO-Arg-Pro-Arg-Nva-Tyr-Dap-Hol-NH2 [PTR 6164]
tumor regression after injection at the tumor area (PC3 tumor xenograft [3]): four out of five animals showed complete regression of the tumor | effect on tumor growth (PC3 tumor xenograft [4]; daily i.p. injections, 66 mg/kg and 33 mg/kg, 21 days): significant inhibition of tumor growth | Apoptosis in tumor sections (PC3 tumor xenograft [4]; [9]): 5.6 | Mitoses in tumor sections (PC3 tumor xenograft [4]; [9]): 3.4 | effect on tumor size (PC3 tumor xenograft [4]; injections every 48 hours (i.v.), 66 mg/kg and 33 mg/kg): no effect on the tumor size | phosphorylation of GSK3 and FKHR [5]: decreases the phosphorylation of GSK3 and FKHR | cellular activity [6]: 12 µM

Compound: Myristyl-Gly-Arg-Pro-Arg-Nva-Tyr-Dap-Hol-NH2 [PTR 6180]
cellular activity [6]: 25 to 50 µM

Compound: Vitamin E succinate-Arg-Pro-Arg-Nva-Tyr-Dap-Hol-NH2 [PTR 6244]
cellular activity [6]: 15 to 20 µM
